Entries after “also recorded” stand apart in the source; their conditions may differ. Like-named read-outs stand apart in the source and are kept apart here.
Legend:
[1] = biological target: human OAT1 (organic anion transporter1) (Homo sapiens (Human), UniProt Q4U2R8); assay: hOAT1 mediated uptake in MDCK-II cells; conditions: for Cellular Accumulation (control): control vector cells of hOAT1 test; for Cellular Accumulation (transporter): hOAT1 expressing MDCK-II cells
human PBMCs [2] = conditions: activated human PBMCs, cited from earlier work
[3] = biological target: human OAT3 (organic anion transporter3) (Homo sapiens (Human), UniProt Q8TCC7); assay: hOAT3 mediated uptake in MDCK-II cells; assay type: in vitro ADME; conditions: for Cellular Accumulation (control): control vector cells of hOAT3 test; for Cellular Accumulation (transporter): hOAT3 expressing MDCK-II cells
Method: Experimental: The uptake test system was comprised of a polarized monolayer of MCDK-II cells grown on permeable supports. The MDCK-II cells were treated to express the transporter of interest or treated with a control vector.
The uptake of 2 μM [^3H]-p-aminohippurate (PAH) and 0.75 μM [^3H]-estrone-3-sulfate (E-3-S) in the absence and presence of the reference inhibitor was determined by radiometric detection. The uptake of CMX157 and tenofovir was in the absence and presence of the reference inhibitor or 20% human serum was determined by LC/MS/MS. Experiments were performed under the same conditions for the cells expressing the transporter or those treated with the control vector.
Net Transporter Mediated Uptake=(Cellular accumulation in the presence of the transporter)−(Cellular accumulation in the absence of the transporter) Results: The net hOAT1 mediated uptake of tenofovir in the presence and absence of 100 μM probenecid or 20% human serum is shown in FIG. 8. The transport of tenofovir is inhibited by probenecid and relatively unchanged by the presence of 20% human serum. OAT3 also appeared to mediate the transport of tenofovir. The effect of probenecid, however, was minimal. The presence of 20% human serum in the OAT3 experiment reduced the OAT3 mediated transport of tenofovir.

[4] = Phase I single dose study, plasma pharmacokinetics; assay type: in vivo, human; conditions: for TFV AUCINF / TFV Cmax / Cmax / AUC(0-inf): plasma; for Cmax / AUC(0-inf): human; for AUC(0-inf): read-out: CMX157 AUCINF
Method: (§1) The study was a randomized, blinded, dose escalation trial to evaluate safety, tolerability, and pharmacokinetics. Healthy volunteers in each cohort (6 active/2 placebo) received a single dose of 25, 50, 100, 200 or 400 mg. An additional cohort received a standard dose of Viread for comparison of TFV-PP levels. For tenofovir anabolite analysis, PBMCs were lysed with 70% ice cold methanol and centrifuged; supernatants were analyzed using LC/MS/MS. The clinical samples were split into two aliquots. One aliquot was used for analysis of CMX157; following addition of an internal standard, these samples were evaporated to dryness prior to reconstitution and analysis. The second aliquot was for analysis of TFV, TFV-monophosphate and TFV-diphosphate; following addition of internal standards, samples were vortexed and centrifuged prior to analysis.

[5] = cited from earlier work
CEM-SS cells = assay: Toxicity XTT in CEM-SS cells
HIV-1IIIB = assay: Anti-HIV-1 cytoprotection assay (CEM-SS, XTT)
XMRV = XMRV antiviral cytoprotection assay (PG-4 cells, XTT); assay type: cell-based; conditions: 144 h, 6 day assay, read-out: EC50s for XMRV
Method: An XMRV antiviral cytoprotection assay was conducted using PG-4 cells (ATCC# CRL-2032; feline astrocytes) and XMRV was collected from the supernatant of 22Rv1 human prostate cancer cells (ATCC# CRL-2505). Inhibition of cytopathic effect was quantified using XTT following a 6 day assay. Ribavirin and AZT were evaluated in parallel as control compounds.

[6] = Phase I single dose study, TFV-diphosphate in PBMCs of healthy volunteers; assay type: in vivo, human; conditions: single 400 mg dose of CMX157
Method: as §1

[7] = Phase I single dose study, safety and tolerability; assay type: in vivo, human; conditions: healthy volunteers, single doses 25 mg to 400 mg
Method: as §1

HIV-1 subtypes (A-G, O) = assay: Activity against HIV-1 subtypes in PBMCs; assay type: cell-based; conditions: Human immunodeficiency virus 1, PBMC
human PBMCs [8] = assay: Intracellular TFV-diphosphate in human PBMCs in vitro; conditions: human PBMCs (IL-2/PHA) after incubation with 1 μM CMX157 for 48 hours
[9] = hOAT1, substrate alone (PAH 2 μM)
[10] = hOAT3, substrate alone (E3S 0.75 μM)
[11] = single oral dose CMX157 200 mg, mean
[12] = single oral dose CMX157 400 mg, mean
[13] = Human immunodeficiency virus 1, IIIB, CEM-SS, 144 h, read-out: CEMSS/IIIB EC50

C[C@H](Cn1cnc2c(N)ncnc21)OCP(=O)(O)O [Tenofovir, (R)-9-(2-phosphonylmethoxypropyl)adenine, reference compound]
substrate for human OAT1 ([1]; MDCK): appeared to be a substrate | Cellular Accumulation (control) ([1]; + 100 μM probenecid): 2.22 ± 0.995 pmol/min/cm^2 | Cellular Accumulation (control) ([1]; + 20% human serum): 1.77 ± 1.13 pmol/min/cm^2 | Cellular Accumulation (control) ([1]; substrate alone (PAH 2 μM)): 2.45 ± 0.197 pmol/min/cm^2 | Net Transporter Mediated Cellular Accumulation ([1]; hOAT1, + 100 μM probenecid): 4.49 ± 1.46 pmol/min/cm^2 | Net Transporter Mediated Cellular Accumulation ([1]; hOAT1, + 20% human serum): 20.0 ± 3.45 pmol/min/cm^2 | Net Transporter Mediated Cellular Accumulation [1, 9]: 19.5 ± 4.04 pmol/min/cm^2 | Cellular Accumulation (transporter) ([1]; + 100 μM probenecid): 6.71 ± 1.46 pmol/min/cm^2 | Cellular Accumulation (transporter) ([1]; + 20% human serum): 21.8 ± 3.45 pmol/min/cm^2 | Cellular Accumulation (transporter) ([1]; substrate alone (PAH 2 μM)): 21.9 ± 4.04 pmol/min/cm^2 | TFV-diphosphate produced (human PBMCs [2]; 1 μM TFV): 50 fmoles per million cells | Cellular Accumulation (control) ([3]; + 100 μM probenecid): 1.94 ± 0.345 pmol/min/cm^2 | Cellular Accumulation (control) ([3]; + 20% human serum): 2.28 ± 1.24 pmol/min/cm^2 | Cellular Accumulation (control) ([3]; substrate alone (E3S 0.75 μM)): 2.65 ± 1.96 pmol/min/cm^2 | Net Transporter Mediated Cellular Accumulation ([3]; hOAT3, + 100 μM probenecid): 1.35 ± 0.364 pmol/min/cm^2 | Net Transporter Mediated Cellular Accumulation ([3]; hOAT3, + 20% human serum): −0.292 ± 0.0591 pmol/min/cm^2 | Net Transporter Mediated Cellular Accumulation [3, 10]: 1.03 ± 0.591 pmol/min/cm^2 | Cellular Accumulation (transporter) ([3]; + 100 μM probenecid): 3.29 ± 0.364 pmol/min/cm^2 | Cellular Accumulation (transporter) ([3]; + 20% human serum): 1.99 ± 0.0591 pmol/min/cm^2 | Cellular Accumulation (transporter) ([3]; substrate alone (E3S 0.75 μM)): 3.68 ± 0.591 pmol/min/cm^2 | TFV AUCINF [4, 11]: 283 ng·h/mL | TFV Cmax [4, 11]: 16 ng/mL | TFV AUCINF [4, 12]: 371 ng·h/mL | TFV Cmax [4, 12]: 27 ng/mL | Cmax ([5]; VIREAD package insert 2007): ~1000 nM

C[C@H](Cn1cnc2c(N)ncnc21)OCP(=O)(O)OCCCOCCCC(=O)O [CMX157-220]
CEMSS TC50 (CEM-SS cells): >10.0 µM | EC50 (HIV-1IIIB; [13]): > 10 µM

CCCCCCCCCCCCCCCCOCCCOP(=O)(O)CO[C@H](C)Cn1cnc2c(N)ncnc21 [CMX157, 3-(hexadecyloxy)propyl hydrogen ((R)-1-(6-amino-9H-purin 9-yl)propan-2-yloxy)methylphosphonate]
Cellular Accumulation (control) ([1]; + 100 μM probenecid): 40.4 ± 5.17 pmol/min/cm^2 | Cellular Accumulation (control) ([1]; + 20% human serum): 6.46 ± 0.168 pmol/min/cm^2 | Cellular Accumulation (control) ([1]; substrate alone (PAH 2 μM)): 50.3 ± 1.30 pmol/min/cm^2 | Net Transporter Mediated Cellular Accumulation ([1]; hOAT1, + 100 μM probenecid): −14.5 ± 4.65 pmol/min/cm^2 | Net Transporter Mediated Cellular Accumulation ([1]; hOAT1, + 20% human serum): −0.954 ± 1.70 pmol/min/cm^2 | Net Transporter Mediated Cellular Accumulation [1, 9]: −13.0 ± 0.0465 pmol/min/cm^2 | Cellular Accumulation (transporter) ([1]; + 100 μM probenecid): 25.9 ± 4.65 pmol/min/cm^2 | Cellular Accumulation (transporter) ([1]; + 20% human serum): 5.51 ± 1.70 pmol/min/cm^2 | Cellular Accumulation (transporter) ([1]; substrate alone (PAH 2 μM)): 37.3 ± 0.0465 pmol/min/cm^2 | EC50 (XMRV): 0.003 to 0.5 µM | TFV-diphosphate produced (human PBMCs [2]; 10 nM CMX157 (Lanier 2010)): 70 fmoles per million cells | TFV-diphosphate in PBMCs [6]: measurable in all subjects; also recorded: measurable in PBMCs from all patients | TFV-diphosphate in PBMCs 6 days after dosing [6]: all but one had detectable levels | serious and remarkable adverse events [7]: No SAEs or remarkable AEs were reported | subjects reporting mild headache [7]: 3 | tolerability [7]: well tolerated | substrate for human OAT3 [3]: did not appear to be a substrate | Cellular Accumulation (control) ([3]; + 100 μM probenecid): 49.5 ± 2.65 pmol/min/cm^2 | Cellular Accumulation (control) ([3]; + 20% human serum): 4.90 ± 1.57 pmol/min/cm^2 | Cellular Accumulation (control) ([3]; substrate alone (E3S 0.75 μM)): 39.5 ± 11.6 pmol/min/cm^2 | Net Transporter Mediated Cellular Accumulation ([3]; hOAT3, + 100 μM probenecid): −23.4 ± 7.59 pmol/min/cm^2 | Net Transporter Mediated Cellular Accumulation ([3]; hOAT3, + 20% human serum): 1.26 ± 0.396 pmol/min/cm^2 | Net Transporter Mediated Cellular Accumulation [3, 10]: −8.72 pmol/min/cm^2 | Cellular Accumulation (transporter) ([3]; + 100 μM probenecid): 26.1 ± 7.59 pmol/min/cm^2 | Cellular Accumulation (transporter) ([3]; + 20% human serum): 6.16 ± 0.396 pmol/min/cm^2 | Cellular Accumulation (transporter) ([3]; substrate alone (E3S 0.75 μM)): 30.7 pmol/min/cm^2 | IC50 (HIV-1 subtypes (A-G, O); previously tested, read-out: IC50s against HIV-1 subtypes (A-G, O)): 0.001 to 0.007 µM | EC50 (HIV-1 subtypes (A-G, O); read-out: EC50 against all major subtypes of HIV-1 in PBMCs): 0.0002 to 0.00718 µM | change of CMX157 plasma Cmax and AUC with dose ([4]; 25 mg to 400 mg single oral dose): approximate linear increase; also recorded: increased linearly with dose | Cmax ([4]; oral, all single dose groups (25 to 400 mg), read-out: Cmax levels): > 10 nM | AUC(0-inf) [4, 11]: 210 ng·h/mL | Cmax ([4]; single oral dose CMX157 200 mg, mean, read-out: CMX157 Cmax): 74 ng/mL | AUC(0-inf) [4, 12]: 376 ng·h/mL | Cmax ([4]; single oral dose CMX157 400 mg, mean, read-out: CMX157 Cmax): 165 ng/mL

C[C@H](Cn1cnc2c(N)ncnc21)OCP(=O)(O)OCCCOCC(=O)O [CMX157-211]
CEMSS TC50 (CEM-SS cells): >10.0 µM | EC50 (HIV-1IIIB; [13]): > 10 µM

CCCCCCCCCCCCCCCCOCCCOP(=O)([O-])CO[C@H](C)Cn1cnc2c(N)ncnc21.[K+] [CMX157 K^+ salt]
CEMSS TC50 (CEM-SS cells): 5.2 µM | EC50 (HIV-1IIIB; CEM-SS cells, HIV-1 IIIB): < 0.03 µM | EC50 (HIV-1IIIB; read-out: CEMSS/IIIB EC50, CEM-SS cells, HIV-1 IIIB, 6 days, XTT): < 0.03 µM

C[C@]12CC[C@@H]3c4ccc(OS(=O)(=O)O)cc4CC[C@H]3[C@@H]1CCC2=O [E3S, estrone-3-sulfate]
Cellular Accumulation (control) ([3]; substrate alone (E3S 0.75 μM)): 39.5 ± 11.6 pmol/min/cm^2 | Net Transporter Mediated Cellular Accumulation [3, 10]: −8.72 pmol/min/cm^2 | Cellular Accumulation (transporter) ([3]; substrate alone (E3S 0.75 μM)): 30.7 pmol/min/cm^2

C[C@H](Cn1cnc2c(N)ncnc21)OCP(=O)(O)OCCCO [CMX157-210]
CEMSS TC50 (CEM-SS cells): >10.0 µM | EC50 (HIV-1IIIB; [13]): > 10 µM

CC(Cn1cnc2c(N)ncnc21)OCP(=O)(O)OP(=O)(O)OP(=O)(O)O (stereo in doubt) [TFV-PP, tenofovir-diphosphate]
in vitro intracellular half-life of TFV-PP (t1/2) (human PBMCs [8]): 79.2 h | median human TFV-PP ([5]; Kiser et al. JAIDS 2008:47): 0.076 pmol/10^6

Cc1cn([C@H]2C[C@H](N=[N+]=[N-])[C@@H](CO)O2)c(=O)[nH]c1=O [AZT, 3′-azido-2′,3′-dideoxythymidine, reference compound]
CEMSS TC50 (CEM-SS cells): >0.1 µM | EC50 (HIV-1IIIB; Human immunodeficiency virus 1, IIIB, CEM-SS): 0.003 µM | EC50 (HIV-1IIIB; [13]): 0.003 µM | Therapeutic Index (HIV-1IIIB; TC50/EC50, CEM-SS, HIV-1 IIIB): >33.3

From patent US9694024B2 (priority 2010, dated 2017)
